Assay results taken from patent publication US11007136B2, “Cosmetic composition for wrinkle reduction containing gypenoside isolated from Gynostemma pentaphyllum” (CELLTRION INC., priority 2015, dated 2021).

Experiments:
[1] = system: human dermal fibroblast neonatal; assay: Procollagen production (collagen synthesis promotion), ELISA kit; type: cell-based; settings: 1 and 5 μg/ml, 48 h, versus positive control NAG at the same concentration, FIG. 3
Method: A human dermal fibroblast neonatal (Cascade Co.) was inoculated into a 24-well microplate (5×10^4 cells/well) by using a medium, in which Dulbeco's Modified Eagle's Medium (DMEM) was supplemented with 10% fetal bovine serum, thus being cultured under a condition of 37° C. and 5% CO2 for 24 hours. Then, the same was replaced with a serum-free DMEM medium and cultured for 24 hours, after which an appropriate amount of a sample fluid was treated so that a final concentration of each test compound could reach 1 μg/ml and 5 μg/ml. After being cultured for 48 hours, a cell culture fluid was collected and then an amount of procollagen was measured by using a collagen measurement kit of Takara Company (Takara Shuzo Co., Ltd.). First of all, the collected cell culture fluid was injected into a 96-well microplate, to which a primary collagen antibody was evenly applied, such that an antigen-antibody reaction could occur at 37° C. for three hours. The cell culture fluid was removed from the well and washed four times with PBS. A color causing material was injected into each well, after which a reaction took place at a room temperature for 15 minutes, such that 1 N sulfuric acid solution was added thereto, thus stopping the reaction. An optical density was measured at a wavelength of 450 nm by means of a spectrophotometer. […]

[2] = Stability of the fraction in raw material solution (HPLC content of UL4, UL5); type: physicochemical; settings: for content stability Results: over 12 weeks
Method: A solution obtained by dissolving powder of the Gynostemma pentaphyllum gypenoside fraction at a concentration of 4% in 100 mL of a mixed solvent of propylene glycol, glycerin and distilled water at a ratio of 5:3:2 was used to identify stability of the Gynostemma pentaphyllum gypenoside fraction in a raw material state. While the solution was being stored under a condition of 4° C., 30° C. and 45° C. and sunlight for 12 weeks, changes with passage of time (% compared to an initial content) in the gypenosides UL4 and UL5, which were index ingredients for quantification out of the Gynostemma pentaphyllum gypenosides, were observed through an HPLC analysis and results thereof were indicated in Table 3.

[3] = Titer stability of UL4 and UL5 within formulations (HPLC); type: physicochemical; settings: for content stability Result: over 12 weeks
Method: As shown in Formulation Examples 1, 2 and 3, cosmetic compositions of a high viscosity emulsified formulation, a low viscosity emulsified formulation and a solubilized formulation, respectively comprising 0.2% of the Gynostemma pentaphyllum gypenoside fraction, were stored under a condition of 4 CC, 30 CC, 45° C. and sunlight for 12 weeks and changes with passage of time (% compared to an initial content) in the gypenosides UL4 and UL5, which were index ingredients for quantification out of the Gynostemma pentaphyllum gypenoside ingredients, were observed through an HPLC analysis, and results thereof were indicated in Tables 10 to 12.

CC(C)=CC1C[C@](O)([C@H]2CC[C@]3(C)[C@@H]2CC[C@@H]2[C@@]4(C=O)CC[C@H](O[C@@H]5OC[C@H](O)[C@H](O[C@@H]6O[C@H](CO)[C@@H](O)[C@H](O)[C@H]6O)[C@H]5O[C@@H]5O[C@@H](C)[C@H](O)[C@@H](O)[C@H]5O)C(C)(C)[C@@H]4CC[C@]23C)[C@H](O)O1 (stereo partly drawn) [Gypenoside UL5, (23ξ)-3β,20β,21α-trihydroxy-19-oxo-21,23-epoxy-dammar-24-ene-3-O-[α-L-rhamnopyranosyl (1→2)][β-D-glucopyranosyl (1→3)]-α-L-arabinopyranoside]
procollagen-producing effect compared with NAG [1]: the same or larger amount of procollagen | content, % compared to an initial content ([2]; 4° C., 1 week): 98.8% | content, % compared to an initial content ([2]; 4° C., 2 weeks): 101.3% | content, % compared to an initial content ([2]; 4° C., 4 weeks): 97% | content, % compared to an initial content ([2]; 4° C., 8 weeks): 97.9% | content, % compared to an initial content ([2]; 4° C., 12 weeks): 98.1% | content stability Results ([2]; 4° C.): Stable | content, % compared to an initial content ([2]; 30° C., 1 week): 101.8% | content, % compared to an initial content ([2]; 30° C., 2 weeks): 98.2% | content, % compared to an initial content ([2]; 30° C., 4 weeks): 99% | content, % compared to an initial content ([2]; 30° C., 8 weeks): 101.2% | content, % compared to an initial content ([2]; 30° C., 12 weeks): 102.9% | content stability Results ([2]; 30° C.): Stable | content, % compared to an initial content ([2]; 45° C., 1 week): 97.6% | content, % compared to an initial content ([2]; 45° C., 2 weeks): 97.5% | content, % compared to an initial content ([2]; 45° C., 4 weeks): 96.9% | content, % compared to an initial content ([2]; 45° C., 8 weeks): 99.2% | content, % compared to an initial content ([2]; 45° C., 12 weeks): 103.8% | content stability Results ([2]; 45° C.): Stable | content, % compared to an initial content ([2]; Sunlight, 1 week): 101.1% | content, % compared to an initial content ([2]; Sunlight, 2 weeks): 98.4% | content, % compared to an initial content ([2]; Sunlight, 4 weeks): 98.8% | content, % compared to an initial content ([2]; Sunlight, 8 weeks): 97.2% | content, % compared to an initial content ([2]; Sunlight, 12 weeks): 97.8% | content stability Results ([2]; Sunlight): Stable | content, % compared to an initial content ([3]; High viscosity emulsified formulation, 4° C., 1 week): 100.6% | content, % compared to an initial content ([3]; High viscosity emulsified formulation, 4° C., 2 weeks): 95.1% | content, % compared to an initial content ([3]; High viscosity emulsified formulation, 4° C., 4 weeks): 104.4% | content, % compared to an initial content ([3]; High viscosity emulsified formulation, 4° C., 8 weeks): 104.2% | content, % compared to an initial content ([3]; High viscosity emulsified formulation, 4° C., 12 weeks): 106.9% | content stability Result ([3]; High viscosity emulsified formulation, 4° C.): Stable | content, % compared to an initial content ([3]; High viscosity emulsified formulation, 30° C., 1 week): 103.8% | content, % compared to an initial content ([3]; High viscosity emulsified formulation, 30° C., 2 weeks): 105.7% | content, % compared to an initial content ([3]; High viscosity emulsified formulation, 30° C., 4 weeks): 108.2% | content, % compared to an initial content ([3]; High viscosity emulsified formulation, 30° C., 8 weeks): 103.4% | content, % compared to an initial content ([3]; High viscosity emulsified formulation, 30° C., 12 weeks): 104.1% | content stability Result ([3]; High viscosity emulsified formulation, 30° C.): Stable | content, % compared to an initial content ([3]; High viscosity emulsified formulation, 45° C., 1 week): 102.6% | content, % compared to an initial content ([3]; High viscosity emulsified formulation, 45° C., 2 weeks): 104.6% | content, % compared to an initial content ([3]; High viscosity emulsified formulation, 45° C., 4 weeks): 102.1% | content, % compared to an initial content ([3]; High viscosity emulsified formulation, 45° C., 8 weeks): 101.8% | content, % compared to an initial content ([3]; High viscosity emulsified formulation, 45° C., 12 weeks): 103.1% | content stability Result ([3]; High viscosity emulsified formulation, 45° C.): Stable | content, % compared to an initial content ([3]; High viscosity emulsified formulation, Sunlight, 1 week): 101.8% | content, % compared to an initial content ([3]; High viscosity emulsified formulation, Sunlight, 2 weeks): 99.2% | content, % compared to an initial content ([3]; High viscosity emulsified formulation, Sunlight, 4 weeks): 103% | content, % compared to an initial content ([3]; High viscosity emulsified formulation, Sunlight, 8 weeks): 101.1% | content, % compared to an initial content ([3]; High viscosity emulsified formulation, Sunlight, 12 weeks): 104.9% | content stability Result ([3]; High viscosity emulsified formulation, Sunlight): Stable | content, % compared to an initial content ([3]; Low viscosity emulsified formulation, 4° C., 1 week): 98.8% | content, % compared to an initial content ([3]; Low viscosity emulsified formulation, 4° C., 2 weeks): 100.4% | content, % compared to an initial content ([3]; Low viscosity emulsified formulation, 4° C., 4 weeks): 102.8% | content, % compared to an initial content ([3]; Low viscosity emulsified formulation, 4° C., 8 weeks): 100.2% | content, % compared to an initial content ([3]; Low viscosity emulsified formulation, 4° C., 12 weeks): 95.2% | content stability Result ([3]; Low viscosity emulsified formulation, 4° C.): Stable | content, % compared to an initial content ([3]; Low viscosity emulsified formulation, 30° C., 1 week): 103.3% | content, % compared to an initial content ([3]; Low viscosity emulsified formulation, 30° C., 2 weeks): 103.9% | content, % compared to an initial content ([3]; Low viscosity emulsified formulation, 30° C., 4 weeks): 102.2% | content, % compared to an initial content ([3]; Low viscosity emulsified formulation, 30° C., 8 weeks): 105.6% | content, % compared to an initial content ([3]; Low viscosity emulsified formulation, 30° C., 12 weeks): 105% | content stability Result ([3]; Low viscosity emulsified formulation, 30° C.): Stable | content, % compared to an initial content ([3]; Low viscosity emulsified formulation, 45° C., 1 week): 103.5% | content, % compared to an initial content ([3]; Low viscosity emulsified formulation, 45° C., 2 weeks): 102% | content, % compared to an initial content ([3]; Low viscosity emulsified formulation, 45° C., 4 weeks): 104.8% | content, % compared to an initial content ([3]; Low viscosity emulsified formulation, 45° C., 8 weeks): 94.2% | content, % compared to an initial content ([3]; Low viscosity emulsified formulation, 45° C., 12 weeks): 98.3% | content stability Result ([3]; Low viscosity emulsified formulation, 45° C.): Stable | content, % compared to an initial content ([3]; Low viscosity emulsified formulation, Sunlight, 1 week): 94.4% | content, % compared to an initial content ([3]; Low viscosity emulsified formulation, Sunlight, 2 weeks): 98.1% | content, % compared to an initial content ([3]; Low viscosity emulsified formulation, Sunlight, 4 weeks): 101.6% | content, % compared to an initial content ([3]; Low viscosity emulsified formulation, Sunlight, 8 weeks): 101% | content, % compared to an initial content ([3]; Low viscosity emulsified formulation, Sunlight, 12 weeks): 102.6% | content stability Result ([3]; Low viscosity emulsified formulation, Sunlight): Stable | content, % compared to an initial content ([3]; Solubilized formulation, 4° C., 1 week): 98.8% | content, % compared to an initial content ([3]; Solubilized formulation, 4° C., 2 weeks): 95.7% | content, % compared to an initial content ([3]; Solubilized formulation, 4° C., 4 weeks): 105.1% | content, % compared to an initial content ([3]; Solubilized formulation, 4° C., 8 weeks): 102.8% | content, % compared to an initial content ([3]; Solubilized formulation, 4° C., 12 weeks): 102.3% | content stability Result ([3]; Solubilized formulation, 4° C.): Stable | content, % compared to an initial content ([3]; Solubilized formulation, 30° C., 1 week): 100% | content, % compared to an initial content ([3]; Solubilized formulation, 30° C., 2 weeks): 105.1% | content, % compared to an initial content ([3]; Solubilized formulation, 30° C., 4 weeks): 108.6% | content, % compared to an initial content ([3]; Solubilized formulation, 30° C., 8 weeks): 103.7% | content, % compared to an initial content ([3]; Solubilized formulation, 30° C., 12 weeks): 104.9% | content stability Result ([3]; Solubilized formulation, 30° C.): Stable | content, % compared to an initial content ([3]; Solubilized formulation, 45° C., 1 week): 100.3% | content, % compared to an initial content ([3]; Solubilized formulation, 45° C., 2 weeks): 101.4% | content, % compared to an initial content ([3]; Solubilized formulation, 45° C., 4 weeks): 97.2% | content, % compared to an initial content ([3]; Solubilized formulation, 45° C., 8 weeks): 102.1% | content, % compared to an initial content ([3]; Solubilized formulation, 45° C., 12 weeks): 95.6% | content stability Result ([3]; Solubilized formulation, 45° C.): Stable | content, % compared to an initial content ([3]; Solubilized formulation, Sunlight, 1 week): 97.9% | content, % compared to an initial content ([3]; Solubilized formulation, Sunlight, 2 weeks): 95.9% | content, % compared to an initial content ([3]; Solubilized formulation, Sunlight, 4 weeks): 104.9% | content, % compared to an initial content ([3]; Solubilized formulation, Sunlight, 8 weeks): 103.5% | content, % compared to an initial content ([3]; Solubilized formulation, Sunlight, 12 weeks): 103.3% | content stability Result ([3]; Solubilized formulation, Sunlight): Stable
